Test results from paper PMC10743537 (2023).

Tested on: nicked decamer duplex 3 (DNA, duplex, PEG(6) tether between positions 5 and 6 (C10/G11 in paper numbering) and between positions 15 and 16 (C20/G1); nick between T5 (3' end, position 20) and G6 (5' end, position 1)) GTCGCGCGACAACGCGCGTT
Test: NMR diffusion (DOSY)
Conditions: 25 mM NaCl, 25 mM K3PO4; D2O buffer, pH 6.0, 10 °C; 0.60 mM each; 1:1 model assumed, self-association neglected

Row | SMILES | Ka [mM⁻¹]
1 | CCc1c2c(nc3ccc(O)cc13)-c1cc3c(c(=O)n1[C@@H]2CN1CCCC1)COC(=O)[C@]3(O)CC | 150
2 | CCc1c2c(nc3ccc(O)cc13)-c1cc3c(c(=O)n1[C@H]2CN1CCCC1)COC(=O)[C@]3(O)CC | 76
